Source: patent US11731977B2, “SGC stimulators” (Cyclerion Therapeutics, Inc., priority 2016, dated 2023)

Biological target: T1, sGC enzyme (Homo sapiens, UniProt Q02108+Q02153)
T1 construct: sGC enzyme activity values in HEK cells, determined by the GloSensor assay; host or cells: HEK293 cells stably expressing GloSensor 40F cGMP biosensor
T1 sequence (Q02153 1-619): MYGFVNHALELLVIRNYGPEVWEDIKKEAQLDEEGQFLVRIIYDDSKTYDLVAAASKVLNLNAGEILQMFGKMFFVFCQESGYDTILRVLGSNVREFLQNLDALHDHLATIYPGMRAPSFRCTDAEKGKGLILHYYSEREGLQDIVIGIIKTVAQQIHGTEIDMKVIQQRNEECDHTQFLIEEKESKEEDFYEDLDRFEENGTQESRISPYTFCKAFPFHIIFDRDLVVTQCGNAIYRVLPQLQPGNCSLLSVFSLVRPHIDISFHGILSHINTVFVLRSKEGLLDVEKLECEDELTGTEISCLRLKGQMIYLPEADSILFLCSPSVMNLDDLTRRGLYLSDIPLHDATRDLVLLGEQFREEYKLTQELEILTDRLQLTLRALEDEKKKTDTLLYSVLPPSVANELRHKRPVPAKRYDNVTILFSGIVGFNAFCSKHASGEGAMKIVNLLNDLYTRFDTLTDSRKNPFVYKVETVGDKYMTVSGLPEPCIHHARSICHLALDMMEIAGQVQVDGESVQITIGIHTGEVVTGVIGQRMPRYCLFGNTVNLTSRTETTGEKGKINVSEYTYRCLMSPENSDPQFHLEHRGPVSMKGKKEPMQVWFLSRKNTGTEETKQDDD
T1 sequence (Q02108 1-690): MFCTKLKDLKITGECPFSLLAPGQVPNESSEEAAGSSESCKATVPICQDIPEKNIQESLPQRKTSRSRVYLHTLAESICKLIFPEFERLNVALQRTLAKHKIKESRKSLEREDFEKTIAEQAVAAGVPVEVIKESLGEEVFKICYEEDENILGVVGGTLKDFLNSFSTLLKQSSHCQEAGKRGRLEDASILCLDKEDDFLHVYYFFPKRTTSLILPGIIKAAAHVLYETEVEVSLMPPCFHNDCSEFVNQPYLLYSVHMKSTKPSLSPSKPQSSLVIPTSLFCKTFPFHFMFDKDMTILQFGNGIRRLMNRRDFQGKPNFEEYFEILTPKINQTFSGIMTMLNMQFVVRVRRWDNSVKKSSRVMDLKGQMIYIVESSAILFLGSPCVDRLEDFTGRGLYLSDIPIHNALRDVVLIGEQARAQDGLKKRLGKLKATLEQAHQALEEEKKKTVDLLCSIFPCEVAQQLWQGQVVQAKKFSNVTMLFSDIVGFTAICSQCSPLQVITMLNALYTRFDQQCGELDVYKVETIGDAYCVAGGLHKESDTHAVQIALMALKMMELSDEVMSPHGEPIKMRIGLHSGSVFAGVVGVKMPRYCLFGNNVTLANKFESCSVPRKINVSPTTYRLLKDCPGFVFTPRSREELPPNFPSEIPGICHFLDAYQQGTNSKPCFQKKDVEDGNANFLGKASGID
Assay: cGMP GloSensor cell-based assay, 384-well format (Example 2a)
Conditions: HEK293 GloSensor 40F cGMP cells; 10 μM DETA-NONOate; 50% of high control (30 μM Compound Y); read-out: Abs EC50
Source text: Human embryonic kidney cells (HEK293) cells expressing GloSensor™ 40F cGMP (Part No: CS182801, Promega) were used to evaluate the activity of test compounds. The luminescent biosensors (engineered luciferase) that were incorporated into these cells detect cGMP formed by the compounds stimulating the sGC enzyme and emit luminescence.
cGMP GloSensor cells were maintained in Dulbecco's Modification of Eagle's Medium (DMEM) supplemented with fetal bovine serum (FBS, 10% final) and hygromycine (200 ug/ml). The day before assay, cells were plated in DMEM with 10% FBS in a 50 μL volume at a density of 1.5×10^4 cells/well in a poly-D-lysine coated 384-well flat white-bottom plate (Corning Cat No 35661). Cells were incubated overnight at 37° C. in a humidified chamber with 5% CO2. The next day, medium was removed and cells were replaced with 40 ul/well of GloSensor™, 2 mM (Promega Cat No E1291). Cells were treated for 90 minutes at 25° C. to allow the substrate to equilibrate in the cells. Test compounds and Diethylenetriamine NONOate (DETA-NONOate, or DETA-NO) was diluted to 3 mM (20×) in serum-free CO2 independent medium and serially diluted at 4× dilutions to create 5× dose curve from which 10 ul was added to the wells (x μM concentration for test compound solution and 10 μM concentration for DETA-NONOate solution; wherein x is one of the following final concentrations: 30000 nM, 7500 nM, 1875 nM, 468.8 nM, 117.2 nM, 29.29 nM, 7.320 nM, 1.830 nM, 0.460 nM, 0.114 nM, and 0.029 nM).
For the kinetics studies, luminescense was measured right away for 0.2 sec per well with Envision (Perkin Elmer). For endpoint SAR screening, data were collected after 55 min incubation at room temperature.
Data were normalized to a high control using the following equation: 100*(Sample−Low Control)/(High Control−Low Control), where the low control is the average of 16 samples treated with 1% DMSO, and the high control is the average of 16 samples treated with 30 μM of Compound Y depicted below. Data were fit using a 4-parameter fit (log(agonist) vs. response—variable slope) using GraphPad Prism Software v.5. n=2 for all compounds. The Absolute (Abs) EC50 was interpolated from the curve fit and is defined as the concentration at which a given compound elicits 50% of the high control response after data normalization as indicated above. Compounds failing to elicit a minimum response of 50% are reported as >30 μM or ND. For compounds run in duplicate or n higher than 2, the result herein given is the geometric mean of the several results obtained.

| SMILES | EC50 [nM] |
| --- | --- |
| Cc1nc(-c2cn3ccnc3c(Cc3ccccc3F)n2)n(Cc2ccc(F)cc2)n1 [Compound I-42, 8-(2-fluorobenzyl)-6-(1-(4-fluorobenzyl)-3-methyl-1H-1,2,4-triazol-5-yl)imidazo[1,2-a]pyrazine] | > 1000 |
| Nc1nc(-c2cn3ccnc3c(Cc3ccccc3F)n2)n(CC(F)(F)F)n1 [Compound I-60, 5-(8-(2-fluorobenzyl)imidazo[1,2-a]pyrazin-6-yl)-1-(2,2,2-trifluoroethyl)-1H-1,2,4-triazol-3-amine] | > 1000 |
| Fc1ccccc1Cc1nc(-c2nc(-n3ccnc3)n[nH]2)cn2ccnc12 [Compound I-63, 6-(3-(1H-imidazol-1-yl)-1H-1,2,4-triazol-5-yl)-8-(2-fluorobenzyl)imidazo[1,2-a]pyrazine] | 100 to 1000 |
| CN(C)c1n[nH]c(-c2cn3ccnc3c(Cc3ccccc3F)n2)n1 [Compound I-65, 5-(8-(2-fluorobenzyl)imidazo[1,2-a]pyrazin-6-yl)-N,N-dimethyl-1H-1,2,4-triazol-3-amine] | 100 to 1000 |
| Fc1ccccc1Cc1nc(-c2nc(C(F)(F)F)n[nH]2)cn2c(I)cnc12 [Compound I-66, 8-(2-Fluorobenzyl)-3-iodo-6-(3-(trifluoromethyl)-1H-1,2,4-triazol-5-yl)imidazo[1,2-a]pyrazine] | 100 to 1000 |
| Fc1ccccc1Cc1nc(-c2nc(C(F)(F)F)n[nH]2)cn2c(Cl)cnc12 [Compound I-67, 3-Chloro-8-(2-fluorobenzyl)-6-(3-(trifluoromethyl)-1H-1,2,4-triazol-5-yl)imidazo[1,2-a]pyrazine] | ≤ 100 |
| Fc1ccccc1Cc1nc(-c2nc(C(F)(F)F)n[nH]2)cn2c(F)cnc12 [Compound I-68, 3-Fluoro-8-(2-fluorobenzyl)-6-(3-(trifluoromethyl)-1H-1,2,4-triazol-5-yl)imidazo[1,2-a]pyrazine] | ≤ 100 |
| N#Cc1cnc2c(Cc3ccccc3F)nc(-c3nc(C(F)(F)F)n[nH]3)cn12 [Compound I-70, 8-(2-Fluorobenzyl)-6-(3-(trifluoromethyl)-1H-1,2,4-triazol-5-yl)imidazo[1,2-a]pyrazine-3-carbonitrile] | 100 to 1000 |
| Fc1ccccc1Cc1nc(-c2nc(C(F)(F)F)n[nH]2)cn2cnnc12 [Compound I-72, 8-(2-Fluorobenzyl)-6-(3-(trifluoromethyl)-1H-1,2,4-triazol-5-yl)-[1,2,4]triazolo[4,3-a]pyrazine] | > 1000 |

Second part, the compound after the results:

| EC50 [nM] | SMILES |
| --- | --- |
| ≤ 100 | Cc1nc(-c2cn3ccnc3c(Cc3ccccc3F)n2)nn1Cc1cccc(F)c1 [Compound I-47, 8-(2-Fluorobenzyl)-6-(1-(3-fluorobenzyl)-5-methyl-1H-1,2,4-triazol-3-yl)imidazo[1,2-a]pyrazine] |
| ≤ 100 | Cc1nc(-c2cn3ccnc3c(Cc3ccccc3F)n2)nn1CC(=O)C(C)(C)C [Compound I-48, 1-(3-(8-(2-Fluorobenzyl)imidazo[1,2-a]pyrazin-6-yl)-5-methyl-1H-1,2,4-triazol-1-yl)-3,3-dimethylbutan-2-one] |
| 100 to 1000 | Cc1nc(-c2cn3ccnc3c(Cc3ccccc3F)n2)nn1CCCCF [Compound I-50, 8-(2-Fluorobenzyl)-6-(1-(4-fluorobutyl)-5-methyl-1H-1,2,4-triazol-3-yl)imidazo[1,2-a]pyrazine] |
| ≤ 100 | Cc1cc(Cn2nc(-c3cn4ccnc4c(Cc4ccccc4F)n3)nc2C)no1 [Compound I-51, 3-((3-(8-(2-Fluorobenzyl)imidazo[1,2-a]pyrazin-6-yl)-5-methyl-1H-1,2,4-triazol-1-yl)methyl)-5-methylisoxazole] |
| 100 to 1000 | CCn1nc(-c2cn3ccnc3c(Cc3ccccc3F)n2)nc1C [Compound I-53, 6-(1-Ethyl-5-methyl-1H-1,2,4-triazol-3-yl)-8-(2-fluorobenzyl)imidazo[1,2-a]pyrazine] |
| 100 to 1000 | Cc1nc(-c2cn3ccnc3c(Cc3ccccc3F)n2)nn1CCC(F)(F)F [Compound I-54, 8-(2-Fluorobenzyl)-6-(5-methyl-1-(3,3,3-trifluoropropyl)-1H-1,2,4-triazol-3-yl)imidazo[1,2-a]pyrazine] |
| ≤ 100 | CCCCn1nc(-c2cn3ccnc3c(Cc3ccccc3F)n2)nc1C [Compound I-56, 6-(1-Butyl-5-methyl-1H-1,2,4-triazol-3-yl)-8-(2-fluorobenzyl)imidazo[1,2-a]pyrazine] |
| 100 to 1000 | Nc1n[nH]c(-c2cn3ccnc3c(Cc3ccccc3F)n2)n1 [Compound I-57, 5-(8-(2-Fluorobenzyl)imidazozo[1,2-a]pyrazin-6-yl)-1H-1,2,4-triazol-3-amine] |
| ≤ 100 | Nc1nc(-c2cn3ccnc3c(Cc3ccccc3F)n2)nn1Cc1cccc(F)c1 [Compound I-58, 1-(3-Fluorobenzyl)-3-(8-(2-fluorobenzyl)imidazo[1,2-a]pyrazin-6-yl)-1H-1,2,4-triazol-5-amine] |
| ≤ 100 | Nc1nc(-c2cn3ccnc3c(Cc3ccccc3F)n2)nn1CC(F)(F)F [Compound I-59, 3-(8-(2-Fluorobenzyl)imidazo[1,2-a]pyrazin-6-yl)-1-(2,2,2-trifluoroethyl)-1H-1,2,4-triazol-5-amine] |
| ≤ 100 | Fc1ccccc1Cc1nc(-c2nc(Cl)n[nH]2)cn2ccnc12 [Compound I-62, 6-(3-Chloro-1H-1,2,4-triazol-5-yl)-8-(2-fluorobenzyl)-imidazo[1,2-a]pyrazine] |
| ≤ 100 | Cc1cnc2c(Cc3ccccc3F)nc(-c3nc(C(F)(F)F)n[nH]3)cn12 [Compound I-71, 8-(2-Fluorobenzyl)-3-methyl-6-(3-(trifluoromethyl)-1H-1,2,4-triazol-5-yl)imidazo[1,2-a]pyrazine] |
